Patent publication US20210379094A1, “METHOD FOR REDUCING DRUG-INDUCED NEPHROTOXICITY” (Yissum Research Development Company of the Hebrew …, priority 2019, published 2021)
Values joined by “and” are separate entries in the source; they are usually repeats but may differ in a detail not shown here. Identical values can stand only once.

Columns and labels:
Assay type in all cases: cell-based, human
[1] = system: HK-2 proximal tubule cells; test: Glucose accumulation assay (2-NDBG); settings: for 2-NBDG fluorescence: concentrations a thousand-fold under the threshold of cellular damage
Protocol: To monitor glucose uptake in cells, a fluorescent analog of glucose 2-(N-(7-Nitrobenz-2-oxa-1,3-diazol-4-yl) Amino)-2-Deoxyglucose (2-NDBG), (Invitrogen, CA, USA) was used. After overnight drug exposure, the medium was removed and replaced with Dulbecco's Phosphate Buffered Saline (Sigma, USA) with 17 mM and 6 mM of 2-NDBG to match glucose concentration of HK-2 and RPTEC culture medium respectively, incubated for 1 hour at 37° C., 5% CO2 before imaging. 2-NDBG is taken up in mammalian cells by GLUT-2, if its activity or shuttling is disturbed, 2-NDBG will accumulate in the cells, showing higher green intensity.

HK-2 organoids [2] = test: Metabolic flux analysis (glucose, lactate, glutamine, oxygen) of perfused organoids; settings: for ATP production drop / Lipogenesis increase / glycolysis drop: 31 hours exposure to sub-toxic concentration (12.5 μM Cyclosporine A, 32 μM Cisplatin, 32 mM Gentamicin)
Protocol: Amperometric glucose and lactate sensors were purchased from Innovative Sensor Technology (IST, Switzerland). […] Both sensors produce H2O2 in amounts proportional to the measured metabolite, which is detected with platinum electrodes under polarized condition. […] Measurements were carried out and calibrated to sensitivity decrease by on-chip potentiostat (IST, Switzerland). Glucose uptake, oxygen uptake, and lactate production rates were measured by calculating the change in metabolite concentration between the bioreactor in- and outflow as a function of perfusion rate and cell number. Metabolic rates were calculated assuming negligible contribution to oxygen uptake by fatty acid oxidation and enzymatic activity. […] Based on these assumptions, oxidative phosphorylation flux was calculated by dividing the oxygen uptake rate by six. It was estimated that 32 ATP molecules were generated by complete oxidation of one molecule of glucose. Glycolysis flux was calculated by dividing lactate production rate by two, with maximal rate defined by glucose uptake rate minus the oxidative phosphorylation flux. ATP production in glycolysis was estimated to be two molecules per molecule of glucose. It was assumed that any glucose left over was directed toward lipogenesis, because the contribution of pentose phosphate pathway in non-proliferating cells is minor. […] ATP production in glutaminolysis was estimated to be three molecules per molecule of lactate generated.

HK-2 organoids [3] = test: Real-time oxygen uptake / time to onset in perfused organoid bioreactor; settings: for Oxygen uptake drop: after 33 hours continuous perfusion, 12.5 μM Cyclosporine A, 32 μM Cisplatin, 32 mM Gentamicin
Protocol: Polydimethylsiloxane (PDMS) microwell inserts were sterilized with 70% EtOH and 30-min exposure to UV light prior to cell seeding. Kidney cells were trypsinized, counted, and centrifuged at 300×g for 5 min at 4° C. […] Then, 1.35 μl of Matrigel® suspension containing cells and oxygen-sensing beads was seeded in each well using […] M P10M (Gilson, UK). The inoculated microwell insert was then incubated for 30 min at 37° C. to polymerize the gel. Following polymerization, the insert was immersed in 3 ml of cell culture medium and incubated overnight at 37° C. prior to being sealed in the bioreactor housing. Bioreactors were then placed in a climate control chamber on an IX81 fluorescence microscope (Olympus, Japan). Bioreactors were continuously perfused with cell culture medium noted above supplemented with 10 mM HEPES and 1% DMSO at a flow rate of 5 μL/min. Drug induction started upon metabolic stabilization. Stabilization was assessed by daily measurements of oxygen and metabolites.
Real-time oxygen measurements were performed optically using on-chip lifetime-based luminescence quenching (LBLQ). […] Oxygen acts as a quencher, leading to a decrease in decay time and signal intensity with increasing concentration. We chose to measure decay time, rather than signal intensity, as it is not sensitive to changes in probe concentration or excitation intensity over the course of the experiment. […] To accurately measure decay time, we chose phase modulation in which sinusoidal amplitude-modulated light is shifted in phase due to oxygen quenching. […] Measurements were carried out by averaging five consecutive 4-s exposures. Measurements were taken every 15 min.
Bioreactors were perfused with different concentrations of compounds dissolved in culture medium. […] TC50 concentrations were determined using MATLAB by sigmoidal curve fitting. […] Time to onset was analyzed by MATLAB based on LPF and trend assessment.

HK-2 [4] = test: Reduction of toxicity (rescue) experiment with glucose transport inhibitors, LIVE/DEAD viability; settings: for cell viability / cell death: cultures treated with nephrotoxic drug plus inhibitor vs drug alone
Protocol: (§1) Empagliflozin (5 μM) a potent SGLT2 inhibitor, phloretin (1 mM) inhibits the apicobasal shuttling of the GLUT2, phlorizin (200 μM) is a mild inhibitor of SGLT1 and SGLT2. When all three inhibitors were used together, the mix was referred to as a cocktail. All experiments were performed on a 96 well plate, in triplicates with controls with no drugs, or inhibitors alone. First, cells were incubated for 1 hour with inhibitors alone and then drugs were added with inhibitors for 24 hours for LIVE DEAD assay or 48 hours for Lipid accumulation (LipidTox Assay). Cell viability was determined using LIVE/DEAD Cytotoxicity kit (Molecular Probes, USA) according to manufacturer directions. Briefly, cultures were incubated for 30 min with 2 μM calcein AM and 4 μM ethidium homodimer-1. Live cells were positive for green fluorescence due to hydrolysis of the acetoxymethyl ester group by intracellular esterases. Dead cells were positive for red fluorescence due to ethidium homodimer-1 binding intracellular DNA, possible in […]. Cellular viability was expressed as live over dead ratio and normalized based on negative (DMSO/DDW/PBS) controls. Fluorescence micrographs were analyzed for total fluorescence using ImageJ for 9 repeats for each sample. Error bars indicate ±SEM.
(§2) After staining, plates were mounted on the fluorescent microscope for quantification. Rescue was achieved when significant percentage of live cells and/or a reduced amounts of dead cells was observed as compared with cells treated with the drug only.

HK-2 [5] = test: Reduction of toxicity (rescue) experiment with glucose transport inhibitors, lipid accumulation (LipidTox); settings: for lipotoxicity: cultures treated with the three nephrotoxic compounds
Protocol: Quantification of lipid accumulation was performed using HCS LipidTOX™ Phospholipidosis and Steatosis Detection Kit (ThermoFisher). Briefly, HK-2 and RPTEC cells were incubated with different concentrations of compounds dissolved in culture medium and 1× Phospholipidosis Detection Reagent for 48 h, subsequently fixed in 4% PFA. Cells were then stained with 1× Green LipidTOX™ for neutral lipids for 45 min and counterstained with 1 μg/mL Hoechst 33258. Staining intensity was normalized to number of Hoechst 33258 positive nuclei.
as §1, §2

[6] = organoids under continuous perfusion

| Compound | 2-NBDG fluorescence [1] | ATP production drop (HK-2 organoids [2]) [%] | Lipogenesis increase (HK-2 organoids [2]) | glycolysis drop (HK-2 organoids [2]) | Oxygen uptake drop (HK-2 organoids [3]) [%] | cell viability / cell death (HK-2 [4]) | lipotoxicity (HK-2 [5]) | further results |
| --- | --- | --- | --- | --- | --- | --- | --- | --- |
| Gentamicin | doubles | 29 | 438% | 65% | 10 |  |  | Relative 2-NDBG accumulation, increase in glucose content ([1]; HK2 cells, sub-toxic 15 h exposure): 2 fold; lactate over glucose ratio drop (HK-2 organoids [2]; 32 mM Gentamicin, after 10 h exposure): 85%; glucose uptake increase (HK-2 organoids [2]; after 31 hours): +196%; lactate release decrease (HK-2 organoids [2]; after 31 hours): −65.2%; Glutamine uptake change (HK-2 organoids [2]; at 31 hours): +14.1%; Glutamine uptake change (HK-2 organoids [2]; at approximately 16 hours): +76%; shift of organoid metabolism (HK-2 organoids [2]; bioreactor studies): significantly shift proximal tubular organoid metabolism towards lipogenesis; oxygen response upon perfusion (HK-2 organoids [3]; [6]): acute jump in oxygen uptake within an hour after exposure; viability at sub-toxic concentration (HK-2 organoids [3]; sub-toxic concentration used for flux analysis): > 95% |
| N.N.[Cl][Pt][Cl] [Cisplatin] | doubles | 53 | 57.6% and 57% | 98.4% and 98% | 36 |  |  | Overall glutamine uptake (HK-2 organoids [2]; during exposure): remained constant; Time to onset (TTO) of response (HK-2 organoids [3]; HK-2 organoids, increasing concentrations, dose-dependent decrease): 13 to 22 h; time of induced damage following exposure (HK-2 organoids [3]; [6]): at least 14 hours |
| O=C(CCc1ccc(O)cc1)c1c(O)cc(O)cc1O [Phloretin] |  |  |  |  |  | restores cell viability | significantly alleviates lipotoxicity |  |
| OC[C@H]1O[C@@H](c2ccc(Cl)c(Cc3ccc(O[C@H]4CCOC4)cc3)c2)[C@H](O)[C@@H](O)[C@@H]1O [Empagliflozin] |  |  |  |  |  | restores cell viability | significantly alleviates lipotoxicity |  |
| O=C(CCc1ccc(O)cc1)c1c(O)cc(O)cc1O[C@@H]1O[C@H](CO)[C@@H](O)[C@H](O)[C@H]1O [Phlorizin] |  |  |  |  |  | restores cell viability | significantly alleviates lipotoxicity | increase in cell viability (HK-2 [4]; CsA treated cultures, compared to cells treated with CsA alone): 2 fold; decrease in phospholipids content (HK-2 [5]; CsA treated cultures, compared to CsA alone): 2 fold |
